Measurements: ChEMBL document CHEMBL4627374, “Psathyrins: Antibacterial Diterpenoids from Psathyrella candolleana” (2020)
≈ marks a conversion by molar mass, not a printed value.

Key:
Type in all cases: functional
[1] = tested on: Pseudomonas aeruginosa; assay: Antibacterial activity against Pseudomonas aeruginosa ATCC 27853 incubated for 24 hrs by photometry; conditions: ATCC 27853, 24 h
[2] = tested on: Salmonella enterica subsp. enterica; assay: Antibacterial activity against Salmonella enterica subsp. enterica ATCC 14028 incubated for 24 hrs by photometry; conditions: ATCC 14028, 24 h
[3] = tested on: Staphylococcus aureus; assay: Antibacterial activity against Staphylococcus aureus subsp. aureus ATCC 29213 incubated for 24 hrs by photometry; conditions: ATCC 29213, 24 h

MIC50 [1] [µg/mL] | MIC50 [2] [µg/mL] | MIC50 [3] [µg/mL] | SMILES
> 128 | 102 (≈ 319 µM) | 22.7 (≈ 71.3 µM) | C[C@H](CO)[C@H]1CC(=O)C23[C@@H]4C=C(CO)CC[C@@H]4[C@@]2(C)CC[C@]13C (some centres undefined)
 | 1.32 | 0.81 | CC1(C)S[C@@H]2[C@H](NC(=O)Cc3ccccc3)C(=O)N2C1C(=O)[O-].[Na+] (some centres undefined)
> 128 | 77.9 (≈ 245 µM) | 14.3 (≈ 44.9 µM) | CC(C)[C@H]1CC(=O)[C@]23[C@@H]4C=C(CO)C[C@@H](O)[C@@H]4[C@@]2(C)CC[C@]13C

SMILES | MIC50 [1] [µg/mL] | MIC50 [2] [µg/mL] | MIC50 [3] [µg/mL]
CC(C)(O/N=C(\C(=O)N[C@@H]1C(=O)N2C(C(=O)[O-])=C(C[n+]3ccccc3)CS[C@H]12)c1csc(N)n1)C(=O)O [CEFTAZIDIME] | 0.08 (≈ 0.146 µM) |  | 
